Here are results for three compounds from article PMC9683047, “Design, synthesis and biological evaluation of 4-aminoquinoline derivatives as receptor-interacting protein kinase 2 (RIPK2) inhibitors” (Journal of Enzyme Inhibition and Medicinal Chemistry, 2022).

Data set [1] deals with T1, RIPK2 (Homo sapiens, UniProt O43353).
T1 construct: purchased Promega
The data set is described as follows: RIPK2 kinase inhibition assay (ADP-Glo). Format: biochemical. The note with it: mean ± SD from two separate experiments. As for the experimental part: RIPK2 kinase activity was analysed using the ADP-Glo™ Assay Kit (RIPK2 Kinase Enzyme System, Promega, USA). Reactions were performed according to the instructions. Specific signal was calculated by subtracting values in the wells without protein and inhibitor from the values in the test wells.
In general terms: ADP-Glo turns the ADP formed in a reaction into a luminescent signal.

The target of data set [2] is T1, RIPK2. The data set is described as follows: Lipophilic ligand efficiency (LipE). The conditions noted are these: LipE = pIC50 − ClogP.
Another data set has as its target T2, AO oxidase (Homo sapiens, UniProt Q06278).
T2 construct: could undergo mono oxidative metabolism in the human liver cytosol incubation system; from tissue; host or cells: human liver cytosol
The data set is described as follows: AO oxidative metabolism in human liver cytosol. It counts as in vitro ADME. The note with it: human liver cytosol incubation; inhibitors raloxifene and menadione. Here is the method: However, we have done experiment on AO oxidative metabolism of compound 14 and P5. Both compound 14 and P5 could undergo mono oxidative metabolism in the human liver cytosol incubation system.

The target in another data set is T3, RIPK1 (Homo sapiens, UniProt Q13546).
T3 sequence (Q13546 1-671): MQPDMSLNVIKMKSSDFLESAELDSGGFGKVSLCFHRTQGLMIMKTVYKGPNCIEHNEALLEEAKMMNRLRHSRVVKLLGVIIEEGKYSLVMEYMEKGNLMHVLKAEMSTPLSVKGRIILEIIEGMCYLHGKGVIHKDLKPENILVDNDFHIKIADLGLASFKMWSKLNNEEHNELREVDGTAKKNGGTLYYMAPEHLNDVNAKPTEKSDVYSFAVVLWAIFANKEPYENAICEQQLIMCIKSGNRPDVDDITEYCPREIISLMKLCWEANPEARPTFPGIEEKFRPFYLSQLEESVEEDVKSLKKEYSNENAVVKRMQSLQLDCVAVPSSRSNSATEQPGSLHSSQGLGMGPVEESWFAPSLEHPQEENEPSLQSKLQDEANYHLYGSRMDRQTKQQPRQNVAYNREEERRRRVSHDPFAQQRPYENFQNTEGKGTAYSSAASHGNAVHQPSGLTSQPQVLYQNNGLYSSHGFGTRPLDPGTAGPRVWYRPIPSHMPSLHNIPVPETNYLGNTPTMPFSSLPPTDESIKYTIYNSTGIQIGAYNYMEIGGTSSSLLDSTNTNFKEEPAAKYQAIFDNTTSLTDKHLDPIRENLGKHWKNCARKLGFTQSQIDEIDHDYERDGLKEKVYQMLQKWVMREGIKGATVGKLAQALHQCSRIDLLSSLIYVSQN
The data set is described as follows: RIPK1 inhibition rate at 1 µM. It counts as biochemical. Here is the method:
Table 4. Selectivity, ClogP and LipE of compound 14, 15, 21, 32, 36. | column: RIPK1 IR@1µM (%)

The subject of data set [3] is MDP-induced TNF-α secretion in Raw264.7. Put plainly: TNF-α secretion in MDP-induced Raw264.7 (ELISA). The conditions noted are these: Raw264.7, compounds 1 h then L18-MDP 20 µg/mL 24 h, series concentration. Format: cell-based, mouse. Here is the method: Raw 264.7 was cultured in DMEM containing 10% (w/v) foetal bovine serum (FBS). Cell were seeded at a density of 1 × 10^5 cells/well in a 48 well plate overnight, then cells were treated with different concentrations of compounds for1h, following by stimulated with L18-MDP (20 µg/mL, Invivogen) for 24 h. The Cell supernatants were harvested for enzyme-linked immunosorbent assay (ELISA).
TNFα commercial ELISA kits (DAKEWE) were used to detect TNFα in cell culture supernatants according to the manufacturer’s instructions. The concentration of cytokines was determined using multiwell spectrophotometer (SpetraMAX PLUS, Molecular Devices).
(ELISA stands for enzyme-linked immunosorbent assay.)

T1 sequence (O43353 whole entry): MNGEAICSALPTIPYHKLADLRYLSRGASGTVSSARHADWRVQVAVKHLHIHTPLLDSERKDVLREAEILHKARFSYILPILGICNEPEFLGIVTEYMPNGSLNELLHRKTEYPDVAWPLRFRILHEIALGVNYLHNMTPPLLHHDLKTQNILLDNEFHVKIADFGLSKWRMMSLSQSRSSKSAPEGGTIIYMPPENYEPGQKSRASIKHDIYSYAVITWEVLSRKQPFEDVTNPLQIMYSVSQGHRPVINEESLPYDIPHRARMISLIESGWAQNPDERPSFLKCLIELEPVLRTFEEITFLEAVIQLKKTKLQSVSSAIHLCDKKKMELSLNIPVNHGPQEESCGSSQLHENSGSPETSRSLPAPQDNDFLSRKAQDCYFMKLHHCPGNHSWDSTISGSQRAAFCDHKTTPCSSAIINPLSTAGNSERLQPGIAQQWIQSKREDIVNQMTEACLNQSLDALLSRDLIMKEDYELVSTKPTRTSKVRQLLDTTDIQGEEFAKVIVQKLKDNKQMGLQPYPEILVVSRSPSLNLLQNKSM
T2 sequence (Q06278 whole entry): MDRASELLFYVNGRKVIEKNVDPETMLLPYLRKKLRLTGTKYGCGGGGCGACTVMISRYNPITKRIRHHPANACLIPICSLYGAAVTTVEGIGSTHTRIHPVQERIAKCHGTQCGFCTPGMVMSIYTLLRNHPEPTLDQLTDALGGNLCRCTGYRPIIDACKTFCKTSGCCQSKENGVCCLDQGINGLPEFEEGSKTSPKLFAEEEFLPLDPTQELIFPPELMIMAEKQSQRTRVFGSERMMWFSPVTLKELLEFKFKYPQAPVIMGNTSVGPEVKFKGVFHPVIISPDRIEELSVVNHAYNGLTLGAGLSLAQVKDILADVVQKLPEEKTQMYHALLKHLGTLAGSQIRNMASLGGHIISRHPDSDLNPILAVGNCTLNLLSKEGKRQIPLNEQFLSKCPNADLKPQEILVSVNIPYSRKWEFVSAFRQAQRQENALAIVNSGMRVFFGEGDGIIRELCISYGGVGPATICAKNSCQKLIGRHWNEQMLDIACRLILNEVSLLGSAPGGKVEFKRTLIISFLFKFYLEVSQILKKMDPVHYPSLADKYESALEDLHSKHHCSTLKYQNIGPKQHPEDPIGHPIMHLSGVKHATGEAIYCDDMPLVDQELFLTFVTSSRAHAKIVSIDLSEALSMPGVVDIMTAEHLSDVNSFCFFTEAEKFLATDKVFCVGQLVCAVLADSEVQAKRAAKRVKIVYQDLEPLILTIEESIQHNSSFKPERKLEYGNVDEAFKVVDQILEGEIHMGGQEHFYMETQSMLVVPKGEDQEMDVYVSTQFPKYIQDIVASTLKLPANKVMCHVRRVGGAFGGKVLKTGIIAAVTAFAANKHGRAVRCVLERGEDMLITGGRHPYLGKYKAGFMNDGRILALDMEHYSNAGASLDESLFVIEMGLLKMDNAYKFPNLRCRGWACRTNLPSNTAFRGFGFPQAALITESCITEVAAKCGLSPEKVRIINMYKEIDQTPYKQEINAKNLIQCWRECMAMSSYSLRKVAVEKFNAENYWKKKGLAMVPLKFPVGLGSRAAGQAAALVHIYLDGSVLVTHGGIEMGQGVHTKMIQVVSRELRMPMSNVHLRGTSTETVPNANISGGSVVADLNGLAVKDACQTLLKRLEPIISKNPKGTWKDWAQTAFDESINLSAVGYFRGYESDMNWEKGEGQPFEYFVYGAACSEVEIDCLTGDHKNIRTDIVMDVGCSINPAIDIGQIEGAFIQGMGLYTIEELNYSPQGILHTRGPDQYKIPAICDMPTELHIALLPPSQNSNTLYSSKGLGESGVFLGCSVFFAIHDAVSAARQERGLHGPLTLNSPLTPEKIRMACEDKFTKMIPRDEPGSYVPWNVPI

`CC(C)(C)S(=O)(=O)c1cc2c(Nc3ccc4scnc4c3)ncnc2cc1OCCO` [Compound P5, reference compound] showed an IC50 at RIPK2 [1] of 2.6 ± 1.2 nM. The compound further gave a LipE at RIPK2 [2] of 6.70. Moreover, at AO oxidase, the AO oxidase substrate result is reported as “metabolic substrates of AO oxidase”.
In the case of `c1cncc(-c2ccc3nccc(Nc4ccc5scnc5c4)c3c2)c1` [Compound 15, N-(6-(pyridin-3-yl)quinolin-4-yl)benzo[d]thiazol-5-amine], the IC50 against RIPK2 [1] worked out at 6 ± 1.5 nM. For the same compound, on RIPK1, the “RIPK1 IR@1µM (%)” value is on record as below 1%. Besides, the “inhibition of MDP-induced TNF-α secretion” value in data set [3] is given as “almost no inhibition”. The LipE at RIPK2 [2] amounted to 4.27.
`COc1cc(Nc2ccnc3ccc(-c4cnn(C)c4)cc23)cc(OC)c1OC` [Compound 36, 6–(1-Methyl-1H-pyrazol-4-yl)-N-(3,4,5-trimethoxyphenyl)quinolin-4-amine] displayed an IC50 on RIPK2 [1] of 7.2 ± 2.6 nM. For the same compound, the “RIPK1 IR@1µM (%)” value at RIPK1 is below 1%. For the same compound, the LipE at RIPK2 [2] came out at 3.67.

As a reminder, the IC50 is the concentration at which inhibition is half-maximal.
